Laboratory results: ChEMBL document CHEMBL1201862, “PubChem BioAssay data set” (2004)
Activity calls are given as the source filed them.

Legend:
[1] = toxicity to human hepatoma HepG2 cells – cell-based, cherry-picked samples, cytotoxicity control, dose response (AID 1159577); type: functional
[2] = P. falciparum Dd2 growth inhibitors, dose response, SYBR Green, cherry-picked samples (AID 1159567); type: functional, cell-based
[3] = biological target: Mitogen-activated protein kinase 10 (Homo sapiens, UniProt P53779); assay: Dose response biochemical screening assay for inhibitors of c-Jun N-Terminal Kinase 3 (JNK3). [Related pubchem assays: 746 ]
Sequence of Mitogen-activated protein kinase 10 (P53779 whole entry): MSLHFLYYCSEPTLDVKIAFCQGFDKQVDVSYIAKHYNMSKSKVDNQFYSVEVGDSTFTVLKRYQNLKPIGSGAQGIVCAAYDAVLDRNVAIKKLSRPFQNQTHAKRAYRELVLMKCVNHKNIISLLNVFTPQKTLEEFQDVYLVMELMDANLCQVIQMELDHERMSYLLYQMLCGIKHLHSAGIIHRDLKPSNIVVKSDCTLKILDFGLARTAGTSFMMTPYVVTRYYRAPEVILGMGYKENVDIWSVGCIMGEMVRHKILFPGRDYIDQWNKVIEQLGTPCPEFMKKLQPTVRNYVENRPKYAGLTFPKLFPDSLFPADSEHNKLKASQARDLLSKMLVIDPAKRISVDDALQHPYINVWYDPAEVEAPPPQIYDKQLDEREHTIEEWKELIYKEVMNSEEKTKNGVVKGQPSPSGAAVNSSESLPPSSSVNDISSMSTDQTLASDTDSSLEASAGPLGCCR

[4] = biological target: Peroxisome proliferator-activated receptor gamma/Nuclear receptor coactivator 3 (Homo sapiens, UniProt P37231); type: functional;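 note: agonist potency for raising coactivator recruitment to the receptor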
Sequence of Peroxisome proliferator-activated receptor gamma/Nuclear receptor coactivator 3 (P37231 whole entry): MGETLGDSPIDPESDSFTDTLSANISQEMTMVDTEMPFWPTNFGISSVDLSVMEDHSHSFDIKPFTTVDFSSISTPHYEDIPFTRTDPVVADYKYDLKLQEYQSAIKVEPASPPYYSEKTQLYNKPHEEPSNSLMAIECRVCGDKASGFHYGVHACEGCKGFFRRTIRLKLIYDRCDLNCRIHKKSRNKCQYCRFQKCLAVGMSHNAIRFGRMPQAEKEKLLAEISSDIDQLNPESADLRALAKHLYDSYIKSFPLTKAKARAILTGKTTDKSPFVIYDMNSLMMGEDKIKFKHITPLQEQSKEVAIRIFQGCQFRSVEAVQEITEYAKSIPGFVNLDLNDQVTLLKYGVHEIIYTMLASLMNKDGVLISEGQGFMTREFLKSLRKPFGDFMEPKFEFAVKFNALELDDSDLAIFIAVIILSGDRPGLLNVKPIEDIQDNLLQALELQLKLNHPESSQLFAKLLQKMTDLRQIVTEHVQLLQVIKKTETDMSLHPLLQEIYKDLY
Sequence of Peroxisome proliferator-activated receptor gamma/Nuclear receptor coactivator 3 (Q9Y6Q9 whole entry, further chain): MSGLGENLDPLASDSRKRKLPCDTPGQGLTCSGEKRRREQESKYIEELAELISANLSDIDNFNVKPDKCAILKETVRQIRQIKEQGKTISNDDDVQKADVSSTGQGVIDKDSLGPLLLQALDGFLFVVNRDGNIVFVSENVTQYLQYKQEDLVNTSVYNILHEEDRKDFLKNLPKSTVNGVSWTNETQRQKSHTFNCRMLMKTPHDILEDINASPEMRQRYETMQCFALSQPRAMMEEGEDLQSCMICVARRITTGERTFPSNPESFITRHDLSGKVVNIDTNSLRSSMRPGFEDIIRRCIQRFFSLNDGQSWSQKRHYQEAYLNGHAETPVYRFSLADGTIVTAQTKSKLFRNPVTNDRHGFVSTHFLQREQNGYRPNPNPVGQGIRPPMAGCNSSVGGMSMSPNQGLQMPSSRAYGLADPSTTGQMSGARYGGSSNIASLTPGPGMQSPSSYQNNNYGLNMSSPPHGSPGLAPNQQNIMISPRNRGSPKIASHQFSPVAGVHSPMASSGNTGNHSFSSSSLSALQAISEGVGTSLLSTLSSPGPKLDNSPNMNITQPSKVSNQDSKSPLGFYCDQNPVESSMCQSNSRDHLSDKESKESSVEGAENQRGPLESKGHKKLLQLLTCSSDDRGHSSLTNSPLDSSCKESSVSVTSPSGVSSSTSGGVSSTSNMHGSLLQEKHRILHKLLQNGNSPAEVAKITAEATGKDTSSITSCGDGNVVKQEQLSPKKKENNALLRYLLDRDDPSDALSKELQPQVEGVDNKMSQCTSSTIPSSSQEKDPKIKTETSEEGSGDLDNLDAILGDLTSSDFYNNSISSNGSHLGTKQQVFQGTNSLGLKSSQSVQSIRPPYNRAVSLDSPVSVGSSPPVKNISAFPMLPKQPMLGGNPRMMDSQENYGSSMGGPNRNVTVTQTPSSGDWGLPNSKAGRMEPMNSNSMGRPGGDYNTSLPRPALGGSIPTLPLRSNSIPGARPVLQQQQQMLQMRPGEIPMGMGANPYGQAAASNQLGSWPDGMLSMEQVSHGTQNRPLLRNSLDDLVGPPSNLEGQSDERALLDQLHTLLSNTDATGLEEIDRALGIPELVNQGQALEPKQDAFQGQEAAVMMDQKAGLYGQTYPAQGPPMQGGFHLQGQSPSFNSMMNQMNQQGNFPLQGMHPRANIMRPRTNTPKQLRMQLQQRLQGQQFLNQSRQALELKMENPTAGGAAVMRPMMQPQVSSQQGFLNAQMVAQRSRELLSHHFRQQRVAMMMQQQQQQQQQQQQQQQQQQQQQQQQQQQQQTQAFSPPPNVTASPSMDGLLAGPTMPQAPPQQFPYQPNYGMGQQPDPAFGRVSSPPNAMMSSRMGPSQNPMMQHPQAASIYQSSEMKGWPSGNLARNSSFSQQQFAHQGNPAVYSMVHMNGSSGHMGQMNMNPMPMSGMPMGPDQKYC

[5] = biological target: Peroxisome proliferator-activated receptor gamma/Nuclear receptor coactivator 1 (Homo sapiens, UniProt P37231); type: functional;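 note: agonist potency as compounds enhance coactivator SRC-1 recruitment to PPARgamma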
[6] = biological target: Peroxisome proliferator-activated receptor gamma/Nuclear receptor coactivator 2 (Homo sapiens, UniProt P37231); type: functional;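 note: agonist potency for raising coactivator recruitment to the receptor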
INS1 = assay: INS-1E survival protection against cytokine death – cell-based, luminescence, retest, dose response (AID 449756); type: functional; settings: Rattus norvegicus;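 note: cell death triggered by IL-1 beta plus TNF-alpha plus IFN-gamma mixture; protective hits raise ATP signal compared with cytokine alone wells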
cells [7] = type: functional, cell-based
[8] = general cell-killing toxicity readout – plate reader, dry powder samples, cytotoxicity control for PAX8 inhibitor project, dose response (AID 743021); type: functional, cell-based
cells [9] = type: functional, cell-based; remark: listed apart in the source
[10] = loss of viability in HepG2 cells – cell-based, CellTiter-Glo, cherry-picked, cytotoxicity control for Shn3 inhibitor project, dose response (AID 624134); type: functional
[11] = reduction of Shn3 3'UTR-driven luciferase in osteoblasts – cell-based, Clone20 osteoblasts, firefly luciferase, cherry-picked, dose response (AID 624132); type: functional;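 note: firefly luciferase luminescence from reporter carrying the Shn3 3'UTR in osteoblasts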
[12] = biological target: T1, Microphthalmia-associated transcription factor (Homo sapiens, UniProt O75030); assay: reducers of TRPM1 reporter luminescence, concentration series – cell-based, SK-MEL-5, cherry-picked, set 3, MITF inhibitor project, dose response (AID 493073); type: functional;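 note: SK-MEL-5 melanoma cells with luciferase driven by the MITF target TRPM1 promoter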
T1 sequence (O75030 whole entry): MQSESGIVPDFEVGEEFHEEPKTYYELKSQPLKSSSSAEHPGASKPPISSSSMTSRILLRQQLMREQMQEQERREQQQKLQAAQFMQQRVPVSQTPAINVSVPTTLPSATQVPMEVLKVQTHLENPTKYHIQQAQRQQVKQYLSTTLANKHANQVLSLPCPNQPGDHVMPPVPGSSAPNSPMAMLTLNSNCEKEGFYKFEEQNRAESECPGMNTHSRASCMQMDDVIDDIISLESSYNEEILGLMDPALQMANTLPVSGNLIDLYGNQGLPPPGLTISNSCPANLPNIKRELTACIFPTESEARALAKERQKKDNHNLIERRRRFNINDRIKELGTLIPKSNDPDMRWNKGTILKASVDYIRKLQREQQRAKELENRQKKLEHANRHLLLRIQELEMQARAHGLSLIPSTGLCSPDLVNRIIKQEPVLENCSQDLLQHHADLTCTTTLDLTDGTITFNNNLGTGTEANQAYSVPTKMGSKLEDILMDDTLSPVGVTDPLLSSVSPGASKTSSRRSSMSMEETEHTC

[13] = non-specific 3'UTR reporter inhibition in Clone20-Shn3RL – cell-based, Renilla luciferase, cherry-picked, counter-screen for Shn3 inhibitor project, dose response (AID 624133); type: functional
Paired box protein Pax-8 = Paired box protein Pax-8 (Homo sapiens, UniProt Q06710); assay: PAX8 transcriptional activity inhibition in RMG-I – RMG-I cells, luciferase, cherry-pick, dose response (AID 687027); type: functional, cell-based;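 note: luciferase reporter driven by Pax8 target thyroperoxidase promoter measured by SteadyGlo luminescence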
Sequence of Paired box protein Pax-8 (Q06710 whole entry): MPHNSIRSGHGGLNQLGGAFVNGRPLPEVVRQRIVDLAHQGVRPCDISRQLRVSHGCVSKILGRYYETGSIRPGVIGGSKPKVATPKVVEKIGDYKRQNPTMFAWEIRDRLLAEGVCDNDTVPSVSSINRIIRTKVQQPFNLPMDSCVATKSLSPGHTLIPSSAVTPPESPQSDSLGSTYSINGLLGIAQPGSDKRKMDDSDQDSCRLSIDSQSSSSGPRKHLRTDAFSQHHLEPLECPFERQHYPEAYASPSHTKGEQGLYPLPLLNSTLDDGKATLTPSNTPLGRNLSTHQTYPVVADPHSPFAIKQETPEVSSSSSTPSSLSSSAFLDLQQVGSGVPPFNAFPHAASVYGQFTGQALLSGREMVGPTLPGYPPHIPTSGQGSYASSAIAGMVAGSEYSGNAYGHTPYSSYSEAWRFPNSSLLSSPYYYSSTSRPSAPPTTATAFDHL

Vero = assay: viability of Vero cells under compound – cytotoxicity control for flavivirus capping enzyme inhibitors (AID 588742); type: functional; settings: Chlorocebus sabaeus
[14] = biological target: T2, Polyadenylate-binding protein 1 (Homo sapiens, UniProt P11940); assay: MLLE binding blockers, Cy5 peptide tracer – biochemical, fluorescence polarization, Cy5-PAM2 peptide, secondary, miRNA deadenylation inhibitor project, dose response (AID 602260); type: functional; settings: read-out: IC50_Mean
T2 sequence (P11940 whole entry): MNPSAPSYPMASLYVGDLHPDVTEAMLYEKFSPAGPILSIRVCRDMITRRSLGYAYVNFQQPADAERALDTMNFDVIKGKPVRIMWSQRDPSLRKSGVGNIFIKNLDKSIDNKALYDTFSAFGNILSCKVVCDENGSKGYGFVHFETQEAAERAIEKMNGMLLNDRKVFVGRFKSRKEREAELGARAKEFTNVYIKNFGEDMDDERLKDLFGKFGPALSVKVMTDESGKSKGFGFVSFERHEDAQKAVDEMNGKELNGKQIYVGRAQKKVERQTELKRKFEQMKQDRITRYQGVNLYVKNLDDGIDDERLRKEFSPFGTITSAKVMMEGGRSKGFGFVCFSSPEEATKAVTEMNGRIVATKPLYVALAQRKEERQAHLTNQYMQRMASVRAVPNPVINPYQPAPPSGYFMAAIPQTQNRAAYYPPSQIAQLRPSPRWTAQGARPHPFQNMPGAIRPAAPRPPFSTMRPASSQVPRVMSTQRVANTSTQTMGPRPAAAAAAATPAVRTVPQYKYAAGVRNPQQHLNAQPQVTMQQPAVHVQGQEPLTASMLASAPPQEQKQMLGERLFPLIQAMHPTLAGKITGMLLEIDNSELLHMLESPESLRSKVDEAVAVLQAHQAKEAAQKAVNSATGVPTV

[15] = biological target: Induced myeloid leukemia cell differentiation protein Mcl-1 (Homo sapiens, UniProt Q07820); type: functional
Sequence of Induced myeloid leukemia cell differentiation protein Mcl-1 (Q07820 whole entry): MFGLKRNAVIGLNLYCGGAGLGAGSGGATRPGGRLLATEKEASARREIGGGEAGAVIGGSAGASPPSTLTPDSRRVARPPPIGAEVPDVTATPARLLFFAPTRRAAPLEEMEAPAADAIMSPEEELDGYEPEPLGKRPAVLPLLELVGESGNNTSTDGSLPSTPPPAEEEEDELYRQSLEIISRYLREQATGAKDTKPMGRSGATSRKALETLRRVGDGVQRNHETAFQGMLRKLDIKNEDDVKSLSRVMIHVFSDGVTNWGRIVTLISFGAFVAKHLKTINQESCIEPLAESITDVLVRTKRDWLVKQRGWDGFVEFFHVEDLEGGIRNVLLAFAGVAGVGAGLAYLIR

[16] = biological target: E3 ubiquitin-protein ligase Mdm2 (Homo sapiens, UniProt Q00987); assay: MDM2-luc reporter signal enhancers, multi-concentration potency testing, MDM2 ubiquitin-protein ligase inhibitor program, whole-cell format, luminescence detection, 384-well microplate (AID 1394); type: functional;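 note: MDM2 E3 inhibitors raise luminescence so EC50 is for signal enhancement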
Sequence of E3 ubiquitin-protein ligase Mdm2 (Q00987 whole entry, the tested form may be a part): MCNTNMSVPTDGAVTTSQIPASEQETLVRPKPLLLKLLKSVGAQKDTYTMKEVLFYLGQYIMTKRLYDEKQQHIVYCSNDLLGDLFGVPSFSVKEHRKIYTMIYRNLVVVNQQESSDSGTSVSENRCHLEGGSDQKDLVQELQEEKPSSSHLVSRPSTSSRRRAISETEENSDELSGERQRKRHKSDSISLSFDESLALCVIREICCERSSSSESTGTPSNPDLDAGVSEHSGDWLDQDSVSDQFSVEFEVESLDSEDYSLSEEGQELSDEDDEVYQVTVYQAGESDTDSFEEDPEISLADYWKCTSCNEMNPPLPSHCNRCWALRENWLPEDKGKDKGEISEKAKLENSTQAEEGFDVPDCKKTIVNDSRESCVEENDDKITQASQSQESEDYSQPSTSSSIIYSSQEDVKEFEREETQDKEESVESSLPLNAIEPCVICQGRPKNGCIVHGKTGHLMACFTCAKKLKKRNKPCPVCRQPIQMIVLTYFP

[17] = biological target: T2, Polyadenylate-binding protein 1; assay: MLLE domain peptide-binding blockers, IC50 – biochemical, fluorescence polarization, FITC-PAM2 peptide, dose response (AID 602259); type: functional; settings: read-out: IC50_Mean
[18] = biological target: T3, Apoptotic protease-activating factor 1 (Homo sapiens, UniProt O14727); type: functional
T3 sequence (O14727 whole entry): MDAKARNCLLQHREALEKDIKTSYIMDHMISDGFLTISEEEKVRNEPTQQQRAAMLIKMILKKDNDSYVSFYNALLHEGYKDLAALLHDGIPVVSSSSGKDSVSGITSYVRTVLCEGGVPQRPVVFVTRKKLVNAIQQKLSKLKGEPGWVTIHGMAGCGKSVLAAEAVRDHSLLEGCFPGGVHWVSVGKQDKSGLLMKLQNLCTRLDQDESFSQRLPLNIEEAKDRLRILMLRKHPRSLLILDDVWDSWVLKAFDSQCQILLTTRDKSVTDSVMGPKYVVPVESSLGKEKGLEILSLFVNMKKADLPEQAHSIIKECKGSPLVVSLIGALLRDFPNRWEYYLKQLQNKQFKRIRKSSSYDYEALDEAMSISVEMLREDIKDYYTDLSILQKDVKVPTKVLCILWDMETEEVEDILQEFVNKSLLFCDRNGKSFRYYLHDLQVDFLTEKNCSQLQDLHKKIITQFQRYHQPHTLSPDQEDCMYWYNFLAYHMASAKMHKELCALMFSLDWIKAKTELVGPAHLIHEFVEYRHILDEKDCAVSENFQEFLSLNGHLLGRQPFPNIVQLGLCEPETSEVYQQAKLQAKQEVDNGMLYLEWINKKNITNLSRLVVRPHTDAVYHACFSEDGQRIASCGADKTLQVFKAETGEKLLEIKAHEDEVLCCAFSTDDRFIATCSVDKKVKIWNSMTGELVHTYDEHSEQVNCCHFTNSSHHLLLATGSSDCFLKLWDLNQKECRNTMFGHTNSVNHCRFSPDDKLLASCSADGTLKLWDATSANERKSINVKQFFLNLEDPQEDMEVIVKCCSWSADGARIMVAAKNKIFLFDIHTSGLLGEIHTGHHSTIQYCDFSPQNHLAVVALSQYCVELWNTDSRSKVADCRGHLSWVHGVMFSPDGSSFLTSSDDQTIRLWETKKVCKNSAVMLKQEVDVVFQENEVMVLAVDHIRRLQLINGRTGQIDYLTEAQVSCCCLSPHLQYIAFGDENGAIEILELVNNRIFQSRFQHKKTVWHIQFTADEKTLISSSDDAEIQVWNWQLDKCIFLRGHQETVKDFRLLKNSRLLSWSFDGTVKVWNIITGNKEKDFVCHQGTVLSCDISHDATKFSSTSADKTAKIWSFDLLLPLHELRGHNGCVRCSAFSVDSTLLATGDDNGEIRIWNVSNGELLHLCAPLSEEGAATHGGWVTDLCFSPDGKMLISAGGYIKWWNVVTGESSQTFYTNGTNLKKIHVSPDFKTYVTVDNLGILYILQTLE

[19] = viability loss in THP-1 monocytes – THP-1 cells, cytotoxicity control for Vif-APOBEC3G degradation inhibitor project, dose response (AID 1117359); type: functional; settings: THP-1
[20] = A cytotoxicity screen of small molecule inhibitors of the PhoP region in Salmonella typhi identified in the primary screen. [Related pubchem assays: 1850, 1864, 1985 ]; type: functional
[21] = biological target: Glyceraldehyde-3-phosphate dehydrogenase (Homo sapiens, UniProt P04406)
Sequence of Glyceraldehyde-3-phosphate dehydrogenase (P04406 whole entry): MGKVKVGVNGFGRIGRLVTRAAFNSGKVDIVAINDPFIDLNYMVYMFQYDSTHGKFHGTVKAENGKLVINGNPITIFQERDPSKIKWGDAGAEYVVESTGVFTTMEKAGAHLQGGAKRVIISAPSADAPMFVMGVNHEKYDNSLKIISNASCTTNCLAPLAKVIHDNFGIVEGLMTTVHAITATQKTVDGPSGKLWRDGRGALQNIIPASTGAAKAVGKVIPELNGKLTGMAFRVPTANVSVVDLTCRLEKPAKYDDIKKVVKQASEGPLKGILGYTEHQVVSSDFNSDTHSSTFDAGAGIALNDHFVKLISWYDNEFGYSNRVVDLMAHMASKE

Aminopeptidase N = biological target: T4, Aminopeptidase N (Plasmodium falciparum FcB1/Columbia, UniProt O96935); assay: malaria alanyl aminopeptidase activity blockers – biochemical, fluorogenic H-Leu-NHMec substrate, 1536-well (AID 1445); parameters: species or system Plasmodium falciparum 3D7, 3D7
T4 sequence (O96935 whole entry): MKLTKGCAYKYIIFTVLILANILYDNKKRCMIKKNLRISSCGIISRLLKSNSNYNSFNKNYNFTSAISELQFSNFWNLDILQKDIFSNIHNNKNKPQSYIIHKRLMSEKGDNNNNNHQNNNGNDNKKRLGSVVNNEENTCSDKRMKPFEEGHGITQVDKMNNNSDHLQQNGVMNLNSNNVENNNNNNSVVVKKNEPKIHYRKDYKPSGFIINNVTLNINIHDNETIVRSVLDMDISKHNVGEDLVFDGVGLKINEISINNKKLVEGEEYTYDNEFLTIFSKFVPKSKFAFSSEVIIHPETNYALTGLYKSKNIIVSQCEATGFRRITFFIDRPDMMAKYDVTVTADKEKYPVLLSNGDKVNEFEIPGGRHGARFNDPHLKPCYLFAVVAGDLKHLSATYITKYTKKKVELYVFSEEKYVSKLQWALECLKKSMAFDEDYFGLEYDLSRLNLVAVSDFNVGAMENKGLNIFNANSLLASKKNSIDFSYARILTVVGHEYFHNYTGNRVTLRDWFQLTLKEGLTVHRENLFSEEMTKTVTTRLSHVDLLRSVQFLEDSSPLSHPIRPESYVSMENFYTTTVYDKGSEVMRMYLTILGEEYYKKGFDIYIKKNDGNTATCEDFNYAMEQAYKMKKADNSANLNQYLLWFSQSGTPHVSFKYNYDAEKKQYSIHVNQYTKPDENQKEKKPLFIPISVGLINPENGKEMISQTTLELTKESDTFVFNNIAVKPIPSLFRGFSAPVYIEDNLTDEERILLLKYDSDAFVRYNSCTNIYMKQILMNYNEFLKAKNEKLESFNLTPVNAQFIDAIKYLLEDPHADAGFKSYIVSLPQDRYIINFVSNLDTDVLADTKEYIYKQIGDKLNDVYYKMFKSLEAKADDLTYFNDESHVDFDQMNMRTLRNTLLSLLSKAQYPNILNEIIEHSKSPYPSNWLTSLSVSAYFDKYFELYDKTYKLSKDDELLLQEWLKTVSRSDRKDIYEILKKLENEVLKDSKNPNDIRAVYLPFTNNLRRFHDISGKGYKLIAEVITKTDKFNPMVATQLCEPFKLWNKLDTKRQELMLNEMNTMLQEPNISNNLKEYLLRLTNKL

Estrogen receptor beta = Estrogen receptor beta (Homo sapiens, UniProt Q92731);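 note: recombinant ER-beta bound to coactivator SRC1 peptide in presence of estradiol agonist; inhibitors block coactivator peptide binding and lower the FRET signal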

## N#C[C@@H]1[C@@H](c2ccc(C#Cc3ccc(F)cc3)cc2)[C@H](CO)N1C(=O)C1CCC1
[1]
  AC50: > 39 µM (inactive)
[2]
  AC50: 6.15 µM (active)

## COc1ccc(C2C(C(=O)NCc3ccco3)CCC(=O)N2c2ccc(OC)cc2)cc1 (configuration not stated)
[3]
  IC50: > 93.1 µM (not active)

## CCOc1nc(-c2ccccc2)ccc1-c1noc(-c2cccs2)n1
[4]
  EC50: 29.6 µM (not active)
[5]
  EC50: 25.8 µM (not active)
[6]
  EC50: 21.2 µM (not active)

## O=C(c1ccccc1)c1nc[nH]c1C(=O)Nc1ccccn1
[3]
  IC50: > 93.1 µM (not active)

## COc1ccccc1NC(=O)c1nc(S(=O)(=O)Cc2ccccc2)ncc1Cl
INS1
  AC50: 6.44 µM (active)
Cells [7]
  EC50: > 350 µM (not active)
[8]
  AC50: 21.1 µM (active)
Cells [9]
  EC50: 5 µM (active)
[10]
  AC50: 14.2 µM (active)
[11]
  AC50: 0.492 µM (active)
[12]
  AC50: 8.91 µM (active)
[13]
  AC50: 6.58 µM (active)
Paired box protein Pax-8
  AC50: 8.83 µM (active)

## Cc1ccc2c(c1)c1ccc3c(c1n2C)C(=O)C=CC3=O
Vero
  CC50: 27.3 µM (active)
[14]
  IC50: > 66 µM (inactive)
[15]
  IC50: 1.51 µM (active)
[16]
  EC50: 958 µM (active)
[17]
  IC50: > 66 µM (inactive)
[18]
  IC50: 51.8 µM (active)
[19]
  CC50: 12.5 µM (active)

## CCOC(=O)c1nn(-c2ccc(Cl)cc2)c2nc(-c3ccc(C)cc3)c(C#N)c(=O)n12
[4]
  EC50: > 79.4 µM (not active)
[5]
  EC50: > 79.4 µM (not active)
[6]
  EC50: > 79.4 µM (not active)

## CS(=O)(=O)N(CCc1ccccc1)CC(=O)Nc1ccc2c(c1)OCO2
[20]
  EC50: > 50 µM (active)

## Cc1oc(C(=O)O)cc1COc1ccc2c(oc(=O)c3ccccc32)c1C
[21]
  IC50: > 100 µM (not active)

## CC(C)=CCN1CCN(Cc2nc(-c3ccccc3)cs2)CC1CCO (configuration not stated)
[20]
  EC50: > 50 µM (active)

## Cc1nnc(O)nc1N/N=C/c1cccs1
Aminopeptidase N
  IC50: 25.8 µM (active)
[4]
  EC50: > 79.4 µM (not active)
[5]
  EC50: > 79.4 µM (not active)
[6]
  EC50: > 79.4 µM (not active)

## CSCCC(NC(=O)c1ccco1)C(=O)OCC(=O)Nc1sccc1C#N (configuration not stated)
Estrogen receptor beta
  IC50: 16.5 µM (active)

## O=C(CSc1ccc(-c2ccco2)nn1)NC1CCCC1
[16]
  EC50: 0.75 µM (not active)

## O=C(Nc1ccncc1)Nc1ccncc1
[16]
  EC50: 8.86 µM (not active)

## c1ccc(CSc2ccc(-c3cccs3)nn2)nc1
[20]
  EC50: > 50 µM (active)

## O=C1NN(c2cccc(Cl)c2)C(=O)/C1=C\c1ccc(-c2cccc(C(=O)O)c2)o1
[21]
  IC50: > 100 µM (not active)

## COc1cc(C(=O)NCc2cn3ccsc3n2)cc(OC)c1OC
[3]
  IC50: 53.1 µM (not active)

## Nc1nc(Sc2ccc([N+](=O)[O-])c3nonc23)c2nc[nH]c2n1
Vero
  CC50: 5.9 µM (active)
[8]
  AC50: 1.17 µM (active)
[19]
  CC50: 0.68 µM (active)

## CCOc1ccc(-c2csc(NNC3=NCCCCC3)n2)cc1
[14]
  IC50: > 66 µM (inactive)
[4]
  EC50: > 79.4 µM (not active)
[5]
  EC50: > 79.4 µM (not active)
[17]
  IC50: > 66 µM (inactive)
[6]
  EC50: > 79.4 µM (not active)
